Experimental data reported in ChEMBL document CHEMBL1145621, “Orally efficacious thrombin inhibitors with cyanofluorophenylacetamide as the P2 motif” (Bioorg Med Chem Lett, 2008).

What was measured:
[1] = Half life in iv dosed dog; assay type: ADME, organism-based, Canis lupus familiaris; conditions: in vivo
[2] = Oral bioavailability in rat; assay type: ADME, organism-based; conditions: in vivo
[3] = Bioavailability in rat at 30 mg/kg, po; assay type: ADME, organism-based; conditions: in vivo
[4] = Volume of distribution at steady state in rat at 3 mg/kg, iv; assay type: ADME, organism-based; parameters: dose 3 mg/kg, route intravenous; conditions: in vivo, read-out: Vdss
[5] = Half life in rat at 30 mg/kg, po; assay type: ADME, organism-based; parameters: dose 30 mg/kg, route oral; conditions: in vivo
[6] = Metabolic stability in rat liver microsomes after 10 mins; assay type: ADME, Microsome; conditions: read-out: Stability
[7] = Cmax in rat at 30 mg/kg, po; assay type: ADME, organism-based; parameters: dose 30 mg/kg, route oral; conditions: in vivo
[8] = Volume of distribution at steady state in dog at 1 mg/kg, iv; assay type: ADME, organism-based, Canis lupus familiaris; parameters: dose 1 mg/kg, route intravenous; conditions: in vivo, read-out: Vdss
[9] = Clearance in dog at 1 mg/kg, iv; assay type: ADME, organism-based, Canis lupus familiaris; parameters: dose 1 mg/kg, route intravenous; conditions: in vivo
[10] = Half life in dog at 10 mg/kg, po; assay type: ADME, organism-based, Canis lupus familiaris; parameters: dose 10 mg/kg, route oral; conditions: in vivo
[11] = Bioavailability in dog at 10 mg/kg, po; assay type: ADME, organism-based, Canis lupus familiaris; conditions: in vivo
[12] = Half life in dog at 1 mg/kg, iv; assay type: ADME, organism-based, Canis lupus familiaris; parameters: dose 1 mg/kg, route intravenous; conditions: in vivo
[13] = Half life in rat at 3 mg/kg, iv; assay type: ADME, organism-based; parameters: dose 3 mg/kg, route intravenous; conditions: in vivo
[14] = Cmax in dog at 10 mg/kg, po; assay type: ADME, organism-based, Canis lupus familiaris; parameters: dose 10 mg/kg, route oral; conditions: in vivo
[15] = Clearance in rat at 3 mg/kg, iv; assay type: ADME, organism-based; parameters: dose 3 mg/kg, route intravenous; conditions: in vivo
[16] = Oral bioavailability in dog; assay type: ADME, organism-based, Canis lupus familiaris; conditions: in vivo
[17] = Metabolic stability in human liver microsomes after 10 mins; assay type: ADME, Microsome; conditions: read-out: Stability
[18] = Cmax in rat at 10 mg/kg, po; assay type: ADME, organism-based; parameters: dose 10 mg/kg, route oral; conditions: in vivo
[19] = Half life in rat at 2 mg/kg, iv; assay type: ADME, organism-based; parameters: dose 2 mg/kg, route intravenous; conditions: in vivo
[20] = Bioavailability in rat at 10 mg/kg, po; assay type: ADME, organism-based; conditions: in vivo
[21] = Volume of distribution at steady state in rat at 2 mg/kg, iv; assay type: ADME, organism-based; parameters: dose 2 mg/kg, route intravenous; conditions: in vivo, read-out: Vdss
[22] = Metabolic stability in dog liver microsomes after 10 mins; assay type: ADME, Canis lupus familiaris, Microsome; conditions: read-out: Stability
[23] = Clearance in rat at 2 mg/kg, iv; assay type: ADME, organism-based; parameters: dose 2 mg/kg, route intravenous; conditions: in vivo
[24] = Cmax in po dosed dog; assay type: ADME, organism-based, Canis lupus familiaris; parameters: route oral; conditions: in vivo

Compound	half-life [1] [h]	bioavailability [2] [%]	remaining at 10 min [6] [%]	Vd [8] [L/kg]	clearance [9] [mL/min/kg]	half-life [10] [h]	bioavailability [11] [%]	half-life [12] [h]	Cmax [14] [nM]	remaining at 10 min [22] [%]	other results
CCCN(Cc1ccoc1)C(=O)c1cc(C)cc(OCC2(CON=C(N)N)CC2)c1	4.4	24	–	–	–	–	–	–	–	–	–
Cc1cccc(S(=O)(=O)Nc2ccc(C)n(CC(=O)NCCONC(=N)N)c2=O)c1	–	6	–	–	–	–	–	–	–	–	bioavailability [16]: 24%
Cc1nc(N)ccc1CNC(=O)Cc1c(C#N)ccc(NCC(F)(F)c2ccccn2)c1F	1.1	–	–	–	34	–	26	–	–	100	Cmax [24]: 800 nM

The next lines start with results.

half-life [1] [h]	bioavailability [2] [%]	remaining at 10 min [6] [%]	Vd [8] [L/kg]	clearance [9] [mL/min/kg]	half-life [10] [h]	bioavailability [11] [%]	half-life [12] [h]	Cmax [14] [nM]	remaining at 10 min [22] [%]	Compound	other results
–	–	> 95	3.6	18	2.5	45	3.6	2800	–	Cc1ccc(C(F)(F)CNc2ccc(C#N)c(CC(=O)NCCONC(=N)N)c2F)nc1	bioavailability [3]: 2%; Vd [4]: 2.3 L/kg; half-life [5]: 2.5 h; Cmax [7]: 250 nM; half-life [13]: 1.3 h; clearance [15]: 30 mL/min/kg
–	–	> 95	2.9	13	2.5	49	2.9	3500	≥ 86	N#Cc1ccc(NCC(F)(F)c2ccccn2)c(F)c1CC(=O)NCCONC(=N)N	remaining at 10 min [17]: ≥ 86%; Cmax [18]: 30 nM; half-life [19]: 1 h; bioavailability [20]: 2%; Vd [21]: 6 L/kg; clearance [23]: 67 mL/min/kg
–	–	–	2.9	15	3.2	65	2.8	3300	–	Cc1cccc(C(F)(F)CNc2ccc(C#N)c(CC(=O)NCCONC(=N)N)c2F)n1	–
